Reference: ChEMBL document CHEMBL1908105, “UDP-glucuronosyltransferases and clinical drug-drug interactions” (Pharmacol Ther, 2005)
“And” between values parts separate entries of the source, which are not always exact repeats. Equal values may be shown once.

Experiments:
UGT1A4 = UGT1A4 (Homo sapiens, UniProt P22310); assay: (§1) Drug glucuronidation reaction catalyzed by human recombinant UGT1A4; settings: recombinant UGT1A4
[1] = target: T1, UDP-glucuronosyltransferase 1A4 (Homo sapiens, UniProt P22310); assay: as §1
T1 sequence (P22310 whole entry): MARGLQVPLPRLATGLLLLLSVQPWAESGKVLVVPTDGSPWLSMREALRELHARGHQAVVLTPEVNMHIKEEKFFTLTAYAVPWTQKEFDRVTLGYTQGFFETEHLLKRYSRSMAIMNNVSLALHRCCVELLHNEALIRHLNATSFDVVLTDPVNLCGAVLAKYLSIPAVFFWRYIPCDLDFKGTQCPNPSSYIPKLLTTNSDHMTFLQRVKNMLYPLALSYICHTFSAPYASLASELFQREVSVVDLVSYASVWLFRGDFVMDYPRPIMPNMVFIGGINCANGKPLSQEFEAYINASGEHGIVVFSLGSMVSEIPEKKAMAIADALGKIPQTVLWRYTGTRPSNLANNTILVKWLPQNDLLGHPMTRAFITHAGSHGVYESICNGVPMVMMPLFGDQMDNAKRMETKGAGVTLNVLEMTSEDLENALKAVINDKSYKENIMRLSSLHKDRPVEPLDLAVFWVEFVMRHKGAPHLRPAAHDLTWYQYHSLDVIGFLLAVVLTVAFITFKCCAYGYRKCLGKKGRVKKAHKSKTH

[2] = Inhibition of morphine glucuronidation by human fetal-liver microsomes; set-up: species or system Microsome
[3] = Inhibition of 4-methylumbelliferone glucuronidation by human UGT enzymes from liver microsomes; set-up: species or system Microsome
[4] = Inhibition of ciramadol glucuronidation by human UGT enzymes from liver microsomes; set-up: species or system Microsome
[5] = Inhibition of AZT glucuronidation by human UGT enzymes from liver microsomes; set-up: species or system Microsome
UGT2B7 = target: T2, UGT2B7 (Homo sapiens, UniProt P16662); assay: (§2) Drug glucuronidation reaction catalyzed by human recombinant UGT2B7; settings: recombinant UGT2B7
T2 sequence (P16662 whole entry): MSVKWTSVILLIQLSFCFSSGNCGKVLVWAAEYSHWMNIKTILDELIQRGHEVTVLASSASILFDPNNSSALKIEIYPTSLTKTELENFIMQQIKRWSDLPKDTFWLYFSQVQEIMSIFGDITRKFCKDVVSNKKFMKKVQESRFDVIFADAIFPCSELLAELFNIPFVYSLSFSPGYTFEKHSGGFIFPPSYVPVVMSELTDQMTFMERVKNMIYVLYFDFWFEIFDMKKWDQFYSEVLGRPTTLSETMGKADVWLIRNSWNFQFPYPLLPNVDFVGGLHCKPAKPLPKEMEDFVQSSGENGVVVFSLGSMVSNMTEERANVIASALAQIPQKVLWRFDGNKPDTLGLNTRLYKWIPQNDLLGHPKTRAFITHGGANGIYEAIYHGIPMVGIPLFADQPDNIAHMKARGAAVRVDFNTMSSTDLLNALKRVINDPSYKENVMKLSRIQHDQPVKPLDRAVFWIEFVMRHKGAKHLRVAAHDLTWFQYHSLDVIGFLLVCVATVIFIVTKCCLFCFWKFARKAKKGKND

[6] = target: T3, UDP-glucuronosyltransferase 2B7 (Homo sapiens, UniProt P16662); assay: as §2
T3 sequence (P16662 whole entry): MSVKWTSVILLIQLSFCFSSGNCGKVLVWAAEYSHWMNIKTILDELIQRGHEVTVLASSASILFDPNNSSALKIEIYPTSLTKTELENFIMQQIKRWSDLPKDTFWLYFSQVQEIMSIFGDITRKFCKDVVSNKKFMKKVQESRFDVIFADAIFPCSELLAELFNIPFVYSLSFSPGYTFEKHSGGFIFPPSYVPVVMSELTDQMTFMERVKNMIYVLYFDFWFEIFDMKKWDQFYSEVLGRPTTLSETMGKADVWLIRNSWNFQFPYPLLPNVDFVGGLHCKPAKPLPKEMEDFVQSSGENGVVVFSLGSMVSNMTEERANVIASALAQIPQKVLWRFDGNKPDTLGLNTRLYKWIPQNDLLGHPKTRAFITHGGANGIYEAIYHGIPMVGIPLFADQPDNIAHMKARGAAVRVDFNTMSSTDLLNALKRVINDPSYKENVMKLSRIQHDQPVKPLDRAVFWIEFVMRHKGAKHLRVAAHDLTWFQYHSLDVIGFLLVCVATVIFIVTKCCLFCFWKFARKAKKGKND

[7] = target: T4, UDP-glucuronosyltransferase 1A9 (Homo sapiens, UniProt O60656); assay: Inhibition of 4-methylumbelliferone glucuronidation by human recombinant UGT1A9
T4 sequence (O60656 whole entry): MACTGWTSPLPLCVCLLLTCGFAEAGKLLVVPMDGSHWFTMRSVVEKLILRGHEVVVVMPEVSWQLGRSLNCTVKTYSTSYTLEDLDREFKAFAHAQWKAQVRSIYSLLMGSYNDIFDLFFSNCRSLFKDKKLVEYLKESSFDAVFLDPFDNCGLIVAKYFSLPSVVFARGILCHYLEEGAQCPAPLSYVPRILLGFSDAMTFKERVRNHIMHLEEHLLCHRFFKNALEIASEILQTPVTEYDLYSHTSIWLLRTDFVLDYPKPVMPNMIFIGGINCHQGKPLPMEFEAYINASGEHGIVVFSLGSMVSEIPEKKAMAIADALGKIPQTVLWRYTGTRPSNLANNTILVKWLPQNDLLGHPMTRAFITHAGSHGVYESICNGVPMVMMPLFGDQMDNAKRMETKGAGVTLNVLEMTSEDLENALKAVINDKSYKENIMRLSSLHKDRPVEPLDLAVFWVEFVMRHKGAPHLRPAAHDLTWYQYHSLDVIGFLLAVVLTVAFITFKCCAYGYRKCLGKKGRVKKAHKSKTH

UGT1A3 = UGT1A3 (Homo sapiens, UniProt P35503); assay: (§3) Drug glucuronidation reaction catalyzed by human recombinant UGT1A3; settings: recombinant UGT1A3
[8] = target: T5, UDP-glucuronosyltransferase 1A3 (Homo sapiens, UniProt P35503); assay: as §3
T5 sequence (P35503 whole entry): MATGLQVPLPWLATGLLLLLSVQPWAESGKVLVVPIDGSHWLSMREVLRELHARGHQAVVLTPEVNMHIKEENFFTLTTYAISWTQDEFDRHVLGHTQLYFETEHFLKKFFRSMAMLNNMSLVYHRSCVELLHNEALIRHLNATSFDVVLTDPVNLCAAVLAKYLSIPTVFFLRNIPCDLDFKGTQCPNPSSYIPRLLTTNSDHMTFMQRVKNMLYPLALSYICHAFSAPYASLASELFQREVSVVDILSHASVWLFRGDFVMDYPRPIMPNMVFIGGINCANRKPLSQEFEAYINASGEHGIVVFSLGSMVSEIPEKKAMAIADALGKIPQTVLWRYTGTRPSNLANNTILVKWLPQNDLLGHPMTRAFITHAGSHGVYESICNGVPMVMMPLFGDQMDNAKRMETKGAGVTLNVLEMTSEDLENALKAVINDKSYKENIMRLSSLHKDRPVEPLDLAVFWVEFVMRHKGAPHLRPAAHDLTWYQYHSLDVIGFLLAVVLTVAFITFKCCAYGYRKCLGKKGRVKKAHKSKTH

[9] = Inhibition of codeine glucuronidation by human UGT enzymes from liver homogenate; type: tissue-based
[10] = target: T4, UDP-glucuronosyltransferase 1A9; assay: (§4) Drug glucuronidation reaction catalyzed by human recombinant UGT1A9
UGT1A9 [11] = target: T6, UGT1A9 (Homo sapiens, UniProt O60656); assay: as §4; settings: recombinant UGT1A9
[12] = target: T7, UDP-glucuronosyltransferase 1A1 (Homo sapiens, UniProt P22309); assay: Inhibition of 4-methylumbelliferone glucuronidation by human recombinant UGT1A1
T7 sequence (P22309 whole entry): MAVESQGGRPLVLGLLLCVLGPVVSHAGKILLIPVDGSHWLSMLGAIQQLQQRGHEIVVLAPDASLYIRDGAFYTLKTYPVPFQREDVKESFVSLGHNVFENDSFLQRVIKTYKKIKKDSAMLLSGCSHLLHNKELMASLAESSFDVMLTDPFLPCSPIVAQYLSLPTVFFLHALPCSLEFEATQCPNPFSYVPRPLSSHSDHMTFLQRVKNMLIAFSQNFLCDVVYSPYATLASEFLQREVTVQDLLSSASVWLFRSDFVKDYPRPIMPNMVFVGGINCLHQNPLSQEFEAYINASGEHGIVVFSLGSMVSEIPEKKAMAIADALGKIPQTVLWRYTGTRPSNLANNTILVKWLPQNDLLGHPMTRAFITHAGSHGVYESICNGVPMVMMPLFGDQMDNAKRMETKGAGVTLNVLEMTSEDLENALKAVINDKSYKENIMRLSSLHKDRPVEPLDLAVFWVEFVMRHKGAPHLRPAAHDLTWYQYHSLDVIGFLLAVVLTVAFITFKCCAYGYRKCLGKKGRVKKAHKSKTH

[13] = target: UDP-glucuronosyltransferase 1A7 (Homo sapiens, UniProt Q9HAW7); assay: Inhibition of 4-methylumbelliferone glucuronidation by human recombinant UGT1A7
Sequence of UDP-glucuronosyltransferase 1A7 (Q9HAW7 whole entry): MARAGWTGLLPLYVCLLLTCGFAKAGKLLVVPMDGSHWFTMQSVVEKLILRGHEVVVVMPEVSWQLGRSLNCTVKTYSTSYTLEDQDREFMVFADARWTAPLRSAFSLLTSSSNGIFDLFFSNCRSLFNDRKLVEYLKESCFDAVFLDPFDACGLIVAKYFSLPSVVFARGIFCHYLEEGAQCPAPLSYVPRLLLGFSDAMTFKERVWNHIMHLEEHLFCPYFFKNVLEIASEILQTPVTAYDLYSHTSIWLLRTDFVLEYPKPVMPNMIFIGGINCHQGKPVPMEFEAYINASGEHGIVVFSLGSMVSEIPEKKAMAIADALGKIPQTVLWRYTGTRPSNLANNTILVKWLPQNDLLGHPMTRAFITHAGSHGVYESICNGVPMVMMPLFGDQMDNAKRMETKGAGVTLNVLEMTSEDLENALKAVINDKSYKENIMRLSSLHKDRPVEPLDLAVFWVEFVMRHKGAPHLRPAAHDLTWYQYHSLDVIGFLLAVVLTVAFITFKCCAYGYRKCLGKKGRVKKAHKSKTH

[14] = target: UDP-glucuronosyltransferase 1A10 (Homo sapiens, UniProt Q9HAW8); assay: Inhibition of 4-methylumbelliferone glucuronidation by human recombinant UGT1A10
Sequence of UDP-glucuronosyltransferase 1A10 (Q9HAW8 whole entry): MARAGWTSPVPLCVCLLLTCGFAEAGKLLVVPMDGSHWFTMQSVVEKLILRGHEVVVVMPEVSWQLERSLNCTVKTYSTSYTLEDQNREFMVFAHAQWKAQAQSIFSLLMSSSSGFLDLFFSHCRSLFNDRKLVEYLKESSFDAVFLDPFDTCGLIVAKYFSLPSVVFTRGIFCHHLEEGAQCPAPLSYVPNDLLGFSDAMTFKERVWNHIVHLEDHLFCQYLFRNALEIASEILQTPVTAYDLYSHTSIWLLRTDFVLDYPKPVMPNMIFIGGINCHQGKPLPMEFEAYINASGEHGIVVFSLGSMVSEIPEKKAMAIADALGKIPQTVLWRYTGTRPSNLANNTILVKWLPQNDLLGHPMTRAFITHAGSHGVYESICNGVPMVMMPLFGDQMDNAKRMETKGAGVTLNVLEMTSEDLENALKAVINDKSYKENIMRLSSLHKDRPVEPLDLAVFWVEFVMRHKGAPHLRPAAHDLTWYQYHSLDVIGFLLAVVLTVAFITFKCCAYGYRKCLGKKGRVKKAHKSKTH

[15] = target: T8, UDP-glucuronosyltransferase 1A6 (Homo sapiens, UniProt P19224); assay: Drug glucuronidation reaction catalyzed by human recombinant UGT1A6
T8 sequence (P19224 whole entry): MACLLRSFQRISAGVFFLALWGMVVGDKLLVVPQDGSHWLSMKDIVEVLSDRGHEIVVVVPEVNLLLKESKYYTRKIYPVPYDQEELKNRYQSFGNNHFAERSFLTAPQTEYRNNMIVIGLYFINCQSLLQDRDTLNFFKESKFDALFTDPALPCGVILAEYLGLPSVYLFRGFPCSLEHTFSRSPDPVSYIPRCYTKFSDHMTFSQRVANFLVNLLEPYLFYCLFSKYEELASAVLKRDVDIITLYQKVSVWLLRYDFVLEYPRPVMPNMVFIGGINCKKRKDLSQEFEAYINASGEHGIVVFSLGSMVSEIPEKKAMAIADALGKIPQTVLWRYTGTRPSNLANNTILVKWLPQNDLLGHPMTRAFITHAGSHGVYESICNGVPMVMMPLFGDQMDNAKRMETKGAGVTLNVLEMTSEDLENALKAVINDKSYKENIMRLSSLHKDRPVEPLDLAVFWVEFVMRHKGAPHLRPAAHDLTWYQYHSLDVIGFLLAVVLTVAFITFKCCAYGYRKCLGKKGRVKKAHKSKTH

[16] = target: T3, UDP-glucuronosyltransferase 2B7; assay: Inhibition of AZT glucuronidation by human recombinant UGT2B7
UGT1A9 [17] = target: T6, UGT1A9; assay: Inhibition of propofol (assayed at the Km) glucuronidation by human recombinant UGT1A9 (+/- 15% inhibition at 5mM VPA); settings: recombinant UGT1A9, probe propofol
UGT2B15 = UGT2B15 (Homo sapiens, UniProt P54855); assay: Inhibition of dihydrotestosterone (assayed at the Km) glucuronidation by human recombinant UGT2B15 (+/- 11% inhibition at 5mM VPA); settings: recombinant UGT2B15, probe dihydrotestosterone
[18] = target: T8, UDP-glucuronosyltransferase 1A6; assay: Inhibition of 4-methylumbelliferone glucuronidation by human recombinant UGT1A6
[19] = Inhibition of acetaminophen glucuronidation by human UGT enzymes from liver microsomes; set-up: species or system Microsome
[20] = target: UDP-glucuronosyltransferase 2B28 (Homo sapiens, UniProt Q9BY64); assay: Drug glucuronidation reaction catalyzed by human recombinant UGT2B28
Sequence of UDP-glucuronosyltransferase 2B28 (Q9BY64 whole entry): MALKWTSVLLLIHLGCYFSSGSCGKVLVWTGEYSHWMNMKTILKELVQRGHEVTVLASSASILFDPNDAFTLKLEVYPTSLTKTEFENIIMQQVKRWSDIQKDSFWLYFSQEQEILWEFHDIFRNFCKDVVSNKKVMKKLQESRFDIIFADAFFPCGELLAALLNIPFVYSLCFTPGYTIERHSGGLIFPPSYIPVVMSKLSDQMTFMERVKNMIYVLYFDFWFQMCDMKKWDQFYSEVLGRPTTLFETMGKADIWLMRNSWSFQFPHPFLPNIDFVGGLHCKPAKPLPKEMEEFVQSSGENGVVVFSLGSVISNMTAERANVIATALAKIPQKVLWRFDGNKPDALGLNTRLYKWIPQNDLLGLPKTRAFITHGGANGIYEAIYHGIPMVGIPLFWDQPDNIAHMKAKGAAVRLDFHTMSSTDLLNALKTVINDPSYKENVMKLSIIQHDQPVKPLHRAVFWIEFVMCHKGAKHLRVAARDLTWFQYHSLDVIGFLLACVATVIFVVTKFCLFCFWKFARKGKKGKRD

not read = substrate: O=C1Nc2ccc(Cl)cc2C(c2ccccc2)=N[C@H]1O; assay: not read
[21] = substrate: Cc1ccc(C(=O)c2cc(O)c(O)c([N+](=O)[O-])c2)cc1; assay: (§5) Drug glucuronidation reaction catalyzed by human recombinant UGT2B15
[22] = substrate: CCc1c2c(nc3ccc(O)cc13)-c1cc3c(c(=O)n1C2)COC(=O)[C@]3(O)CC; assay: as §5
[23] = substrate: C[C@]12CC[C@H](O)C[C@@H]1CC[C@@H]1[C@@H]2CC[C@]2(C)[C@@H](O)CC[C@@H]12; assay: as §5
[24] = substrate: CC(O)/C(=C(\c1ccccc1)c1ccc(OCCN(C)C)cc1)c1ccccc1; assay: as §5
[25] = substrate: CS(=O)(=O)c1ccc(C2=C(c3ccccc3)C(=O)OC2O)cc1; assay: as §5
[26] = substrate: CCN(CC)C(=O)/C(C#N)=C/c1cc(O)c(O)c([N+](=O)[O-])c1; assay: as §5

Cc1cc2c(s1)Nc1ccccc1N=C2N1CCN(C)CC1 [OLANZAPINE]
Km (UGT1A4): 227 µM
Vmax [1]: 2370 pmol/min/mg protein

O=C1Nc2ccc(Cl)cc2C(c2ccccc2)=NC1O (stereo unspecified) [OXAZEPAM]
Ki [2]: 200 µM and 270 µM
Ki [3]: 188 µM
Ki [4]: 120 µM
Ki [5]: 580 µM

O=C(O)Cc1ccccc1Nc1c(Cl)cccc1Cl [DICLOFENAC]
Km (UGT2B7): 13 µM
Km [6]: 25 µM
Ki [7]: 11 µM
Km (UGT1A3): 12 µM
Vmax [8]: 142 pmol/min/mg protein
Ki [9]: 7.9 µM
Vmax [10]: 166 pmol/min/mg protein
Km (UGT1A9 [11]): 16 µM
Ki [12]: 52 µM
Ki [13]: 19 µM
Ki [14]: 28 µM

CC(=O)Nc1ccc(O)cc1 [ACETAMINOPHEN]
Vmax [15]: 100 pmol/min/mg protein

CCCC(CCC)C(=O)O [VALPROIC ACID]
Ki [16]: 1600 µM
inhibition at 5000 µM (UGT1A9 [17]): 46%
inhibition at 5000 µM (UGT2B15): 41%

CCCN(CCC)S(=O)(=O)c1ccc(C(=O)O)cc1 [PROBENECID]
Ki [7]: 2450 µM
Ki [18]: 1430 µM
Ki [19]: 1100 µM
Ki [5]: 1600 µM
Ki [12]: 221 µM
Ki [13]: 96 µM
Ki [14]: 231 µM

C[C@]12CC[C@@H]3c4ccc(O)cc4CC[C@H]3[C@@H]1CC[C@@H]2O [ESTRADIOL]
Vmax [20]: < 1 pmol/min/mg protein

B1: UDP-glucuronosyltransferase 2B15 (Homo sapiens) (protein)
chain: MSLKWTSVFLLIQLSCYFSSGSCGKVLVWPTEYSHWINMKTILEELVQRGHEVTVLTSSASTLVNASKSSAIKLEVYPTSLTKNYLEDSLLKILDRWIYGVSKNTFWSYFSQLQELCWEYYDYSNKLCKDAVLNKKLMMKLQESKFDVILADALNPCGELLAELFNIPFLYSLRFSVGYTFEKNGGGFLFPPSYVPVVMSELSDQMIFMERIKNMIHMLYFDFWFQIYDLKKWDQFYSEVLGRPTTLFETMGKAEMWLIRTYWDFEFPRPFLPNVDFVGGLHCKPAKPLPKEMEEFVQSSGENGIVVFSLGSMISNMSEESANMIASALAQIPQKVLWRFDGKKPNTLGSNTRLYKWLPQNDLLGHPKTKAFITHGGTNGIYEAIYHGIPMVGIPLFADQHDNIAHMKAKGAALSVDIRTMSSRDLLNALKSVINDPVYKENVMKLSRIHHDQPMKPLDRAVFWIEFVMRHKGAKHLRVAAHNLTWIQYHSLDVIAFLLACVATVIFIITKFCLFCFRKLAKKGKKKKRD
Km (not read): 35 µM and 29 µM
Km [21]: 429 µM
Vmax [21]: 2.4e-05 µmol/min/mg
Km [22]: 186 µM
Vmax [22]: 2e-06 µmol/min/mg
Km [23]: 15 µM
Vmax [23]: 0.00098 µmol/min/mg
Km [24]: 7 µM and 18 µM
Km [25]: 286 µM
Vmax [25]: 1.6e-05 µmol/min/mg
Km [26]: 322 µM
Vmax [26]: 2.4e-05 µmol/min/mg
